Our source for the DC50 and Emax values is patent US20230024096A1, “BIFUNCTIONAL COMPOUNDS FOR THE TREATMENT OF CANCER” (Hoffmann-La Roche Inc., priority 2019, published 2023).

The test has as its target T1, SMARCA2 (Homo sapiens, UniProt P51531).
T1 construct: endogenous in cells; host or cells: HT1080 (CRISPR HiBiT knock-in clone, generated in house)
The test is described as follows: SMARCA2 HiBiT degradation assay (cellular). The class given is cell-based. The conditions noted are these: table head names A549; for DC50: 6 h incubation, HiBiT-tagged SMARCA2, luminescence read-out, read-out: HiBit A549 SMARCA2 IP (nM) 6 h; for Emax: A549, 6 h incubation, Emax = amount of residual protein remaining in the cell following compound treatment. In general terms: The HiBiT peptide binds its large partner to form an active luciferase.

Usually Emax stands for the size of the effect at its maximum, as opposed to the concentration needed.

T1 sequence (P51531 whole entry): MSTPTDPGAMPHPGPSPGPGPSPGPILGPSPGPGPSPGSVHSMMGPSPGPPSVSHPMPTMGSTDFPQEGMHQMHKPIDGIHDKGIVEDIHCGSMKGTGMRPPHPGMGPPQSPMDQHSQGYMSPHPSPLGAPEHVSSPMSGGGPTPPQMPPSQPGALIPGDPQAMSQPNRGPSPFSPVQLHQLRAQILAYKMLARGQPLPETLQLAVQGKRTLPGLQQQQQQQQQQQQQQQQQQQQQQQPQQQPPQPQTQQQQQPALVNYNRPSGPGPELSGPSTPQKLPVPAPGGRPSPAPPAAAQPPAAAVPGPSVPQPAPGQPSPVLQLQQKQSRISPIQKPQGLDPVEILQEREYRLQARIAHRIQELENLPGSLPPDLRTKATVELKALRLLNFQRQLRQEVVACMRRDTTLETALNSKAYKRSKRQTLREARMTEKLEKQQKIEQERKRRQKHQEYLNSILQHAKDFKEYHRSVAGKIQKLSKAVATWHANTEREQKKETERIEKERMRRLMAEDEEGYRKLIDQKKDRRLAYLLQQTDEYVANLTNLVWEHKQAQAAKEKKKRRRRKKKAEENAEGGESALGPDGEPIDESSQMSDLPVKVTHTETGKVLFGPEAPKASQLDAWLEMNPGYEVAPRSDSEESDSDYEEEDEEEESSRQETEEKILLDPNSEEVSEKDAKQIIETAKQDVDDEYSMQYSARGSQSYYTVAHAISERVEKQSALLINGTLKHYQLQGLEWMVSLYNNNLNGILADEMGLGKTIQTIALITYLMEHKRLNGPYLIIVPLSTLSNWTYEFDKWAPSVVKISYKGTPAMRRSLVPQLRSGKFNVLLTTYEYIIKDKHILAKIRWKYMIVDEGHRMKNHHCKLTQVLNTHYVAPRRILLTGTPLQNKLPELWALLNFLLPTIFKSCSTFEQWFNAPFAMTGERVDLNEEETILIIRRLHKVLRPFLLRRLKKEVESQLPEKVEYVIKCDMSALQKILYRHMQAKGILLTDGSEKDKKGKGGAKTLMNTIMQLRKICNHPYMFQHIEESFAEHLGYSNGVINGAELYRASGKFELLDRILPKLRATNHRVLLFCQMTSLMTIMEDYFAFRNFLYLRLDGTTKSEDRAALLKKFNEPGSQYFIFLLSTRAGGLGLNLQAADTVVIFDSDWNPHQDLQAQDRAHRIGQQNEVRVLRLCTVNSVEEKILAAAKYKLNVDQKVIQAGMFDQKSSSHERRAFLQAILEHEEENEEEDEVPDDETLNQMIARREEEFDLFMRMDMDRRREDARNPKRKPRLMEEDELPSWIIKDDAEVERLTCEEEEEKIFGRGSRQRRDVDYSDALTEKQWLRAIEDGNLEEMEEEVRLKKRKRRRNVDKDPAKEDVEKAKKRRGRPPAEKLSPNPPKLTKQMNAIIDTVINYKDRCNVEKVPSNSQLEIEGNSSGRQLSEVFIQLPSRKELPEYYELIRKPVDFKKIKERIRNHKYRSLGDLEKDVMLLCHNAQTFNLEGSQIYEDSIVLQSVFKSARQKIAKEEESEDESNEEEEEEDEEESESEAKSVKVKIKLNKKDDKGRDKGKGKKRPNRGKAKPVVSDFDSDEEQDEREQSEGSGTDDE

Consider `Nc1nnc(-c2ccccc2O)cc1N1CCC(NC(=O)CC2CCN(C(=O)CCCN3CCC(c4ccc(NC5CCC(=O)NC5=O)cc4)CC3)CC2)(c2ccccc2)CC1` (stereo not drawn) [Example 185, N-[1-[3-amino-6-(2-hydroxyphenyl)pyridazin-4-yl]-4-phenyl-4-piperidyl]-2-[1-[4-[4-[4-[(2,6-dioxo-3-piperidyl)amino]phenyl]-1-piperidyl]butanoyl]-4-piperidyl]acetamide], for which the DC50 came to 241 nM and the Emax turned out to be 62%.
In the same order, the values of `CN(c1cccc2c1C(=O)N(C1CCC(=O)NC1=O)C2=O)C1CCN(C(=O)CCC(=O)N2CCN(CCOc3cccc(N4C5CCC4CN(c4cc(-c6ccccc6O)nnc4N)C5)c3)CC2)CC1` (racemic) [Example 21, rac-4-[[1-[4-[4-[2-[3-[3-[3-amino-6-(2-hydroxyphenyl)pyridazin-4-yl]-3,8-diazabicyclo[3.2.1]octan-8-yl]phenoxy]ethyl]piperazin-1-yl]-4-oxo-butanoyl]-4-piperidyl]-methyl-amino]-2-(2,6-dioxo-3-piperidyl)isoindoline-1,3-dione] are 118 nM and 29%.
Regarding `Nc1nnc(-c2ccccc2O)cc1N1CCC(C(=O)N2CC3(CN(CC4CCN(c5ccc6c(c5)C(=O)N(C5CCC(=O)NC5=O)C6=O)CC4)C3)C2)(c2ccccc2)CC1` (stereo not drawn) [Example 159, 5-(4-((6-(1-(3-amino-6-(2-hydroxyphenyl)pyridazin-4-yl)-4-phenylpiperidine-4-carbonyl)-2,6-diazaspiro[3.3]heptan-2-yl)methyl)piperidin-1-yl)-2-(2,6-dioxopiperidin-3-yl)isoindoline-1,3-dione], the DC50 was 11 nM and the maximal response (Emax) came to 27%.
For `Nc1nnc(-c2ccccc2O)cc1N1CCN(c2ccccc2)C(C(=O)NCC2CCN(C(=O)C3CCN(c4ccc5c(c4)C(=O)N(C4CCC(=O)NC4=O)C5=O)CC3)CC2)C1` (stereo not drawn) [Example 82, 4-(3-amino-6-(2-hydroxyphenyl)pyridazin-4-yl)-N-((1-(1-(2-(2,6-dioxopiperidin-3-yl)-1,3-dioxoisoindolin-5-yl)piperidine-4-carbonyl)piperidin-4-yl)methyl)-1-phenylpiperazine-2-carboxamide], in that order: 190 nM and 65%.
For `Nc1nnc(-c2ccccc2O)cc1N1CCC(C(=O)N2CCC3(CC2)CN(C(=O)CCCN2CCC(c4ccc(OC5CCC(=O)NC5=O)cc4)CC2)CCO3)(c2ccccc2)CC1` (stereo not drawn) [Example 181, 3-(4-(1-(4-(9-(1-(3-amino-6-(2-hydroxyphenyl)pyridazin-4-yl)-4-phenylpiperidine-4-carbonyl)-1-oxa-4,9-diazaspiro[5.5]undecan-4-yl)-4-oxobutyl)piperidin-4-yl)phenoxy)piperidine-2,6-dione], in that order: 99 nM and 56%.
For `Nc1nnc(-c2ccccc2O)cc1N1CCC(C(=O)N2CCC(C(=O)N3CCC(c4ccc(NC5CCC(=O)NC5=O)cn4)CC3)CC2)(c2ccccc2)CC1` (stereo not drawn) [Example 177, 3-((6-(1-(1-(1-(3-amino-6-(2-hydroxyphenyl)pyridazin-4-yl)-4-phenylpiperidine-4-carbonyl)piperidine-4-carbonyl)piperidin-4-yl)pyridin-3-yl)amino)piperidine-2,6-dione], in that order: 174 nM and 69%.
Consider `Nc1nnc(-c2ccccc2O)cc1N1CC2CCC(C1)N2c1cccc(OC2CCN(C(=O)C3CCN(c4ccc5c(c4)C(=O)N(C4CCC(=O)NC4=O)C5=O)CC3)CC2)c1` (racemic) [Example 113, rac-5-[4-[4-[3-[3-[3-amino-6-(2-hydroxyphenyl)pyridazin-4-yl]-3,8-diazabicyclo[3.2.1]octan-8-yl]phenoxy]piperidine-1-carbonyl]-1-piperidyl]-2-(2,6-dioxo-3-piperidyl)isoindoline-1,3-dione], for which the DC50 is 19 nM and the Emax is 35%.
For `Nc1nnc(-c2ccccc2O)cc1N1CC2CCC(C1)N2c1cccc(OCCN2CCN(CCCC3CCN(c4ccc5c(c4)C(=O)N(C4CCC(=O)NC4=O)C5=O)CC3)CC2)c1` (racemic) [Example 143, rac-5-[4-[3-[4-[2-[3-[3-[3-amino-6-(2-hydroxyphenyl)pyridazin-4-yl]-3,8-diazabicyclo[3.2.1]octan-8-yl]phenoxy]ethyl]piperazin-1-yl]propyl]-1-piperidyl]-2-(2,6-dioxo-3-piperidyl)isoindoline-1,3-dione], in that order: 2 nM and 8%.
In the same order, the values of `Nc1nnc(-c2ccccc2O)cc1N1CC2CCC(C1)N2c1cccc(OCCN2CCN(C(=O)CCCCCNc3cccc4c3C(=O)N(C3CCC(=O)NC3=O)C4=O)CC2)c1` (racemic) [Example 12, rac-4-[[6-[4-[2-[3-[3-[3-amino-6-(2-hydroxyphenyl)pyridazin-4-yl]-3,8-diazabicyclo[3.2.1]octan-8-yl]phenoxy]ethyl]piperazin-1-yl]-6-oxo-hexyl]amino]-2-(2,6-dioxo-3-piperidyl)isoindoline-1,3-dione] are 60 nM and 55%.
`Nc1nnc(-c2ccccc2O)cc1N1CC2CCC(C1)N2c1cccc(CN2CCN(C(=O)C3CCN(c4ccc5c(c4)C(=O)N(C4CCC(=O)NC4=O)C5=O)CC3)CC2)n1` (racemic) [Example 131, rac-5-[4-[4-[[6-[3-[3-amino-6-(2-hydroxyphenyl)pyridazin-4-yl]-3,8-diazabicyclo[3.2.1]octan-8-yl]-2-pyridyl]methyl]piperazine-1-carbonyl]-1-piperidyl]-2-(2,6-dioxo-3-piperidyl)isoindoline-1,3-dione]: the DC50 was determined as 27 nM and the maximal response (Emax) came out at 32%.
In the same order, the values of `Nc1nnc(-c2ccccc2O)cc1OC1CCCN(c2ccc(N3CCN(C(=O)CCCCCCCCn4cc(CNc5cccc6c5C(=O)N(C5CCC(=O)NC5=O)C6=O)nn4)CC3)cc2)C1` (stereo not drawn) [Example 3, 4-[[1-[9-[4-[4-[3-[3-amino-6-(2-hydroxyphenyl)pyridazin-4-yl]oxy-1-piperidyl]phenyl]piperazin-1-yl]-9-oxo-nonyl]triazol-4-yl]methylamino]-2-(2,6-dioxo-3-piperidyl)isoindoline-1,3-dione] are 65 nM and 50%.
For `Nc1nnc(-c2ccccc2O)cc1N1CC2CCC(C1)N2c1cccc(OCCN2CCN(C(=O)CC3CCN(c4cccc5c4C(=O)N(C4CCC(=O)NC4=O)C5=O)CC3)CC2)c1` (racemic) [Example 15, rac-4-[4-[2-[4-[2-[3-[3-[3-amino-6-(2-hydroxyphenyl)pyridazin-4-yl]-3,8-diazabicyclo[3.2.1]octan-8-yl]phenoxy]ethyl]piperazin-1-yl]-2-oxo-ethyl]-1-piperidyl]-2-(2,6-dioxo-3-piperidyl)isoindoline-1,3-dione], in that order: 35 nM and 52%.
In the same order, the values of `Nc1nnc(-c2ccccc2O)cc1N1CC2CCC(C1)N2c1cccc(OCCN2CCN(C(=O)N3CCC(c4ccc(OC5CCC(=O)NC5=O)cc4)CC3)CC2)c1` (racemic) [Example 50, rac-3-[4-[1-[4-[2-[3-[3-[3-amino-6-(2-hydroxyphenyl)pyridazin-4-yl]-3,8-diazabicyclo[3.2.1]octan-8-yl]phenoxy]ethyl]piperazine-1-carbonyl]-4-piperidyl]phenoxy]piperidine-2,6-dione] are 16 nM and 44%.
For `Nc1nnc(-c2ccccc2O)cc1N1CCC(C(=O)N2CC3(CCN(CC4CCN(c5ccc6c(c5)C(=O)N(C5CCC(=O)NC5=O)C6=O)CC4)C3)C2)(c2ccccc2)CC1` (stereo not drawn) [Example 190, 5-(4-((2-(1-(3-amino-6-(2-hydroxyphenyl)pyridazin-4-yl)-4-phenylpiperidine-4-carbonyl)-2,6-diazaspiro[3.4]octan-6-yl)methyl)piperidin-1-yl)-2-(2,6-dioxopiperidin-3-yl)isoindoline-1,3-dione], the DC50 came to 22 nM and the maximal response (Emax) came out at 29%.
In the same order, the values of `Nc1nnc(-c2ccccc2O)cc1N1CCC(C(=O)N2CCN(C(=O)C3CCN(c4ccc5c(c4)C(=O)N(C4CCC(=O)NC4=O)C5=O)CC3)CC2)(c2ccccc2)CC1` (stereo not drawn) [Example 120, 5-(4-(4-(1-(3-amino-6-(2-hydroxyphenyl)pyridazin-4-yl)-4-phenylpiperidine-4-carbonyl)piperazine-1-carbonyl)piperidin-1-yl)-2-(2,6-dioxopiperidin-3-yl)isoindoline-1,3-dione] are 31 nM and 28%.
For `Nc1nnc(-c2ccccc2O)cc1N1CC2CCC(C1)N2c1cccc(CN2CCC(C(=O)N3CCC(c4ccc(NC5CCC(=O)NC5=O)cc4)CC3)CC2)c1` (racemic) [Example 93, rac-3-[4-[1-[1-[[3-[3-[3-amino-6-(2-hydroxyphenyl)pyridazin-4-yl]-3,8-diazabicyclo[3.2.1]octan-8-yl]phenyl]methyl]piperidine-4-carbonyl]-4-piperidyl]anilino]piperidine-2,6-dione], in that order: 9 nM and 52%.
For `Nc1nnc(-c2ccccc2O)cc1N1CCC(CNC(=O)COc2ccc3c(c2)C(=O)N(C2CCC(=O)NC2=O)C3=O)(c2ccccc2)CC1` (stereo not drawn) [Example 73, N-((1-(3-amino-6-(2-hydroxyphenyl)pyridazin-4-yl)-4-phenylpiperidin-4-yl)methyl)-2-((2-(2,6-dioxopiperidin-3-yl)-1,3-dioxoisoindolin-5-yl)oxy)acetamide], the DC50 worked out at 114 nM and the Emax stood at 49%.
For `CC(Oc1cccc2c1C(=O)N(C1CCC(=O)NC1=O)C2=O)c1cn(CCCCCCOCCN2CCN(c3ccc(N4CCC[C@H](Oc5cc(-c6ccccc6O)nnc5N)C4)cc3)CC2)nn1` (mixture of isomers) [Example 202, 2-(2,6-dioxo-3-piperidyl)-4-[1-[1-[6-[2-[4-[4-[rac-(3S)-3-[3-amino-6-(2-hydroxyphenyl)pyridazin-4-yl]oxy-1-piperidyl]phenyl]piperazin-1-yl]ethoxy]hexyl]triazol-4-yl]ethoxy]isoindoline-1,3-dione], in that order: 107 nM and 44%.
